According to patent US12115232B2, “Preparation for magnetic resonance diagnostics for oncological diseases, comprising deuterated 3-O-methylglucose, and diagnostic method using said preparation” (SOLVEX LIMITED LIABILITY COMPANY, priority 2017, dated 2024):

How the values were obtained:
breast carcinoma 4T1 = tested on: breast carcinoma 4T1
Protocol: In the examples below, the MRI scanner Bruker BioSpec BC70/30 USR with the constant field of 7.05 T, equipped with a surface transmitting-and-receiving coil with a diameter of 3 cm and a scan depth of ca. 1 cm was used.
To register deuterium image the FLASH (Fast low angle shot) pulse sequence was used.
For experiments with the broadband excitation the following settings were used: the excitation frequency was determined by ^2H NMR spectrum and was sfo1≈46.1745 MHz, a rectangular excitation pulse with a width of 1300 Hz and a power of 36 dB, the flip angle FA=30°, the repetition time TR=11.8 MS, echo time TE=4.4 msec, a scan area of 10 cm×10 cm, scan matrix, 50×50, slice thickness 3 cm, bandwidth of 12500 Hz, total scan time 10 minutes (1030 averages).
In this example, experiments were conducted on mice Balb/c inoculated with breast carcinoma 4T1 (injection of 5×10^5 cells/60 μl under the left front paw for 10 days before experiment) and in healthy Balb/c mice.
A solution of 20-72 mg of 3-O-CD3-glucose was administered to an animal weighing 20 g was injected intraperitoneally, intravenously or via gavage (intraperitoneal: 0.5 ml of a saline solution; intravenous: 0.2 ml of water; oral: 0.25 ml of a saline solution). After injection, the animal was kept in a separate cage with free access to food and water within specified time. For imaging the animal was immobilized with isoflurane. The surface transmitting-and-receiving coil was fixed on the body of the mouse from the dorsal side in the thoracic region.

tumor = test: Preliminary 2H MRI tumor visualization experiments with glucose derivatives; assay type: in vivo
Source text: The authors of this invention have studied various derivatives of glucose as a potential diagnostic agent. It was discovered that not all glucose derivatives can be used for the diagnostics of oncological diseases through ^2H MRI or ^2H NMR.

[2H]C([2H])([2H])O[C@H]1[C@H](O)[C@@H](CO)OC(O)[C@@H]1O (stereo partly drawn) [3-O-CD3-glucose]
accumulation in tumor by 2H MRI after intravenous injection (breast carcinoma 4T1; 20 mg intravenous, 50 minutes, mouse no. 3 (FIG. 9)): accumulation of 3-O-CD3-glucose in the tumor | location of agent by 2H MRI after oral administration, late (breast carcinoma 4T1; 70 mg oral, 100 min (text: 115 min), mouse no. 4 (FIG. 10)): accumulated in tumors | accumulation in tumor visualized by 2H MRI (breast carcinoma 4T1; 72 mg intraperitoneal, 20-320 min after administration, mouse no. 2 (FIGS. 5-8)): accumulated in the tumor in sufficient concentration to be visualized | 2H MRI signal in control mouse without tumors (breast carcinoma 4T1; 72 mg intraperitoneal, 40 minutes after administration, mouse no. 1): missing an area with a strong signal of deuterium | valid range of the diagnostic agent doses (breast carcinoma 4T1; mouse, FIGS. 5-9): 1-3.5 g per 1 kg of animal weight

OCC1OC(O)C(O)C(O)C1O (stereo not drawn) [6,6-D2-glucose]
tumor visualization by 2H MRI (tumor): not possible to accurately visualize the tumor
